Experiments:
[1] = rat, in vivo
Method: All compounds are powders.
IV solution was prepared by dissolving semaglutide in water containing disodium phosphate (0.014% w/v), propylene glycol (0.144% w/v), and phenol (0.056% w/v). The solution was diluted by 3 to reach semaglutide concentration of 0.046mg/mL and filtrated by a sterile 0.22 μm syringe filter.
Pharmacokinetic study protocol: Male Wistar rats (275–300 g, Harlan, Israel) were kept under a 12 h light/dark cycle, with free access to food and water. Animals were anesthetized, and an indwelling cannula was placed into the right jugular vein for systemic blood sampling. The cannula was tunneled beneath the skin and exteriorized at the dorsal part of the neck. The animals were transferred to individual cages to recover overnight (12–18 h). Throughout the experiments, free access to food was available 4 h post-oral administration.
Oral SNAC or salt formulations were dispersed in distilled water and then administrated by oral gavage (~1.2 mL for a rat to get semaglutide dose of 12 mg/kg). Blood samples (0.36 mL) were obtained by intravenous cannula, placed into the jugular vein. In the case of oral administration, samples were taken at 5 min pre-dose intervals and at different time points post-dose, according to the pharmacokinetic profile (no more than 10% of rat blood volume was drawn). To prevent dehydration, physiological solutions were administered, following each blood sampling. Plasma was separated by centrifugation (4000 rpm, 7 min, 4 °C) and stored at −20 °C until use.
Plasma samples were analyzed by a developed LC-MS method for semaglutide.
Absolute bioavailability values and other pharmacokinetic observations were assessed by comparison to intravenous bolus of semaglutide.
Semaglutide in plasma was performed in an Eppendorf® tube by mixing 150 μL of the plasma sample with 150 μL acetonitrile (ACN) and 15 μL of 5% formic acid (FA) and vortexed for 5 min. The tube was centrifuged at 15 °C, 6000 rpm for 6 min. Then, 160 μL of the supernatant was collected in a new tube. A second extraction was performed for the remaining precipitant by adding 60 μL of 5% FA, followed by mixing and centrifugation. Supernatant, 50 μL, was transferred into a tube. The solvent was evaporated to dryness, reconstituted with 50 μL 5% FA, and analyzed by an LC-MS system. Semaglutide standards were prepared by spiking semaglutide solutions in 5% FA into plasma to obtain final concentrations of 1–0.005 μg/mL. The same extraction procedure was performed on the standards as well.
MS/MS analyses were determined on a Sciex (Framingham, MA, USA) QTRAP® 6500^+ mass spectrometer). The chromatography analysis was performed using reverse-phase conditions using a Shimadzu (Kyoto, Japan) UHPLC System, consisting of a Shimadzu CBM-20A communication bus module, Nexera X2 LC-30AD pump, including a Shimadzu DGU-20A5R degasser, a Shimadzu SIL-30AC autosampler, and a Shimadzu CTO-20AC column oven. Liquid chromatography separation was obtained using 10 μL injections of samples onto an XBridge Peptide BEH C18 column (3.5 µm 300Å, 50 × 2.1 mm) from Waters Corp. (Milford, MA, USA), protected by a SecurityGuard™ (Phenomenex, Torrance, CA, USA) cartridge (C18, 2 × 2.1 mm). The column was maintained at 40 °C during the entire analysis. Gradient elution mobile phases consisted of 0.1% formic acid in water (Phase A) and 0.1% formic acid in methanol (Phase B). A flow rate of 0.2 mL/min was applied with a linear gradient from 60% to 80% B over 3.5 min and then held at 80% B for additional 4.5 min. The column was then equilibrated for 6 min at starting conditions prior to the injection of the next sample. The gradient elution program (0.2 mL/min) is described in Table 1.

[2] = dogs, semaglutide formulated with SNAC tablet; cited from earlier work
From the text: The professional literature has contained studies concerning the mechanism of SNAC to enhance permeability. […] SNAC increases lipophilicity of the formulation and causes a local increase in pH via a buffering action.

[3] = clinical study, cited from earlier work
From the text: Preclinical studies reached similar conclusions, although with slightly different values. It is important to remember that the study model, as well as the specific drug being investigated, plays a role in the results, as the drug’s properties and size also affect its absorption. Semaglutide, being ...

## CC[C@H](C)[C@H](NC(=O)[C@H](Cc1ccccc1)NC(=O)[C@H](CCC(=O)O)NC(=O)[C@H](CCCCNC(=O)COCCOCCNC(=O)COCCOCCNC(=O)CC[C@H](NC(=O)CCCCCCCCCCCCCCCCC(=O)O)C(=O)O)NC(=O)[C@H](C)NC(=O)[C@H](C)NC(=O)[C@H](CCC(N)=O)NC(=O)CNC(=O)[C@H](CCC(=O)O)NC(=O)[C@H](CC(C)C)NC(=O)[C@H](Cc1ccc(O)cc1)NC(=O)[C@H](CO)NC(=O)[C@H](CO)NC(=O)[C@@H](NC(=O)[C@H](CC(=O)O)NC(=O)[C@H](CO)NC(=O)[C@@H](NC(=O)[C@H](Cc1ccccc1)NC(=O)[C@@H](NC(=O)CNC(=O)[C@H](CCC(=O)O)NC(=O)C(C)(C)NC(=O)[C@@H](N)Cc1cnc[nH]1)[C@@H](C)O)[C@@H](C)O)C(C)C)C(=O)N[C@@H](C)C(=O)N[C@@H](Cc1c[nH]c2ccccc12)C(=O)N[C@@H](CC(C)C)C(=O)N[C@H](C(=O)N[C@@H](CCCNC(=N)N)C(=O)NCC(=O)N[C@@H](CCCNC(=N)N)C(=O)NCC(=O)O)C(C)C [semaglutide, Semaglutide]
[1]
  semaglutide absorption after oral administration not including SNACs: negligible semaglutide absorption
[2]
  semaglutide concentration underneath the tablet compared to 6 cm at a further distance: 10 fold

## SNAC–phosphatidylcholine [PC]
[1]; po, 12 mg/kg
  AUC0−8: 5083 ± 1478 ng·h/mL
  AUC0−∞: 7729 ± 2928 ng·h/mL
  Cmax: 945 ± 295 ng/mL
  fold increase in AUC0−8 over the original SNAC formulation: ~ 3 fold
  fold increase in AUC0−∞ over the original SNAC formulation: ~ 4 fold
  fold increase in F% over the original SNAC formulation: ~ 4 fold

## vitamin B12
[3]; oral vitamin B12 affected by SNAC
  absolute absorption, formulation with SNAC: 5%
[3]; oral vitamin B12 commercial product
  absolute absorption, commercial product: 2%

Reference: publication PMC11356839, “The Synthesis of SNAC Phenolate Salts and the Effect on Oral Bioavailability of Semaglutide” (Molecules, 2024)
